Assay results published in patent publication US10322106B2, “Combinations of amisulpride and another anti-emetic for treating nausea and vomiting” (Acacia Pharma Limited, priority 2015, dated 2019).

Tests used:
cisplatin-induced emesis = details: ferrets; higher dosages; cited from earlier work
[1] = tested on: chemotherapy-induced nausea and vomiting (cisplatin or cyclophosphamide with epirubicin or doxorubicin); experiment: Study 2: randomised, double blind Phase II study of oral amisulpride for prevention of acute and delayed phase chemotherapy-induced nausea and vomiting; assay type: in vivo, human
Protocol: A randomised, double blind Phase II clinical study was conducted to characterise the dose-response of oral amisulpride for the prevention of acute and delayed phase nausea and vomiting in male and female patients. The patent population consisted of adult, chemotherapy-naïve cancer patients, receiving a first infusion of either cisplatin chemotherapy at a dose of 70 mg/m^2 or greater, or a combination of cyclophosphamide (500-1500 mg/m^2) and either epirubicin (60-100 mg/m^2) or doxorubicin (40-60 mg/m^2) for breast cancer. All patients received an intravenous injection of 20 mg of amisulpride (racemic mixture) and an intravenous injection of 8-16 mg ondansetron on the day of chemotherapy administration (i.e. day 1). The oral doses of amisulpride (racemic mixture) studied, along with placebo, were 10 mg, 20 mg or 40 mg each administered once per day on days 2-4 after chemotherapy. Specifically one capsule of amisulpride or its matching placebo, were taken as early as practically possible after waking of the patients each morning on days 2, 3 and 4. […] “Delayed phase response” means complete response (composite endpoint defined as no voting/retching and no use of rescue medication) in the period 24-120 hrs after chemo. There are other benefits of using a kit of the invention compared to three-drug regimen, such as reduced side-effects and better patient compliance.

[2] = tested on: cisplatin-induced nausea and vomiting; experiment: Study 1: open label, ascending dose Phase II study of intravenous amisulpride in the prevention of cisplatin-induced nausea and vomiting; assay type: in vivo, human
Protocol: This study was designed to find the optimum dose range of IV amisulpride for the kit and method of the invention. This was an open label, ascending dose, Phase II study to determine the minimum effective dose of intravenous amisulpride in the prevention of cisplatin-induced nausea and vomiting. The number of patients evaluated was 51. Doses of amisulpride (racemic mixture) administered were 2.5, 7.5 and 20 mg. A 20 mg dose of amisulpride was also administered with a standard dose of IV ondansetron.

[3] = oral 10 mg AMI days 2-4 after IV OND + 20 mg AMI day 1, all subjects
[4] = oral 10 mg AMI days 2-4 after IV OND + 20 mg AMI day 1, patients with acute phase CR
[5] = oral 20 mg AMI days 2-4 after IV OND + 20 mg AMI day 1, all subjects
[6] = oral 20 mg AMI days 2-4 after IV OND + 20 mg AMI day 1, patients with acute phase CR
[7] = oral 40 mg AMI days 2-4 after IV OND + 20 mg AMI day 1, all subjects
[8] = oral 40 mg AMI days 2-4 after IV OND + 20 mg AMI day 1, patients with acute phase CR

In the case of CCN1CCCC1CNC(=O)c1cc(S(=O)(=O)CC)c(N)cc1OC (racemic) [amisulpride], the “inhibiting cisplatin-induced emesis, dose dependence in words” value (cisplatin-induced emesis) is given as “less effective at higher dosages”, the “Delayed phase response (complete response 24-120 hrs after chemo), in words” value ([1]; 10 mg oral amisulpride days 2-4, acute-phase responders) is given as “significantly better than placebo” and the “CR, 0-120 h” value [1, 3] is given as 36%. For the same molecule, the “CR, 0-120 h (number of subjects)” value [1, 3] was 21, the “CR, 24-120 h” value [1, 3] was 46% and the “CR, 24-120 h (number of subjects)” value [1, 3] was 27. The “Nausea, 0-120 h” value [1, 3] was 68%, the “Nausea, 0-120 h (number of subjects)” value [1, 3] was 40 and the “Nausea, 24-120 h” value [1, 3] was 63%. For the same molecule, the “Nausea, 24-120 h (number of subjects)” value [1, 3] was 37, the “Rescue medication use, 0-120 h” value [1, 3] was 54% and the “Rescue medication use, 0-120 h (number of subjects)” value [1, 3] was 32. The “Rescue medication use, 24-120 h” value [1, 3] was 41%, the “Rescue medication use, 24-120 h (number of subjects)” value [1, 3] was 26 and the “Vomiting, 0-120 h” value [1, 3] was 59%. For the same molecule, the “Vomiting, 0-120 h (number of subjects)” value [1, 3] was 35, the “Vomiting, 24-120 h” value [1, 3] was 46% and the “Vomiting, 24-120 h (number of subjects)” value [1, 3] was 27. The “CR, 24-120 h” value ([1]; oral 10 mg AMI days 2-4 after IV OND + 20 mg AMI day 1, all subjects, listed as AMI) was 46%, the “CR, 24-120 h” value [1, 4] was 75% and the “CR, 24-120 h (number of subjects)” value [1, 4] was 21. The “Nausea, 24-120 h” value [1, 4] was 32%, the “Nausea, 24-120 h (number of subjects)” value [1, 4] was 9 and the “Rescue medication use, 24-120 h” value [1, 4] was 14%. The “Rescue medication use, 24-120 h (number of subjects)” value [1, 4] was 4, the “Vomiting, 24-120 h” value [1, 4] was 21% and the “Vomiting, 24-120 h (number of subjects)” value [1, 4] was 6. For the same molecule, the “CR, 0-120 h” value [1, 5] was 25%, the “CR, 0-120 h (number of subjects)” value [1, 5] was 17 and the “CR, 24-120 h” value [1, 5] was 31%. For the same molecule, the “CR, 24-120 h (number of subjects)” value [1, 5] was 21, the “Nausea, 0-120 h” value [1, 5] was 72% and the “Nausea, 0-120 h (number of subjects)” value [1, 5] was 48. The “Nausea, 24-120 h” value [1, 5] was 69%, the “Nausea, 24-120 h (number of subjects)” value [1, 5] was 46 and the “Rescue medication use, 0-120 h” value [1, 5] was 55%. The “Rescue medication use, 0-120 h (number of subjects)” value [1, 5] was 37, the “Rescue medication use, 24-120 h” value [1, 5] was 54% and the “Rescue medication use, 24-120 h (number of subjects)” value [1, 5] was 36. For the same molecule, the “Vomiting, 0-120 h” value [1, 5] was 70%, the “Vomiting, 0-120 h (number of subjects)” value [1, 5] was 47 and the “Vomiting, 24-120 h” value [1, 5] was 55%. For the same molecule, the “Vomiting, 24-120 h (number of subjects)” value [1, 5] was 37, the “CR, 24-120 h” value [1, 6] was 57% and the “CR, 24-120 h (number of subjects)” value [1, 6] was 17. The “Nausea, 24-120 h” value [1, 6] was 47%, the “Nausea, 24-120 h (number of subjects)” value [1, 6] was 14 and the “Rescue medication use, 24-120 h” value [1, 6] was 23%. The “Rescue medication use, 24-120 h (number of subjects)” value [1, 6] was 7, the “Vomiting, 24-120 h” value [1, 6] was 43% and the “Vomiting, 24-120 h (number of subjects)” value [1, 6] was 13. The “CR, 0-120 h” value [1, 7] was 27%, the “CR, 0-120 h (number of subjects)” value [1, 7] was 17 and the “CR, 24-120 h” value [1, 7] was 31%. For the same molecule, the “CR, 24-120 h (number of subjects)” value [1, 7] was 20, the “Nausea, 0-120 h” value [1, 7] was 77% and the “Nausea, 0-120 h (number of subjects)” value [1, 7] was 49. The “Nausea, 24-120 h” value [1, 7] was 72%, the “Nausea, 24-120 h (number of subjects)” value [1, 7] was 46 and the “Rescue medication use, 0-120 h” value [1, 7] was 58%. The “Rescue medication use, 0-120 h (number of subjects)” value [1, 7] was 37, the “Rescue medication use, 24-120 h” value [1, 7] was 56% and the “Rescue medication use, 24-120 h (number of subjects)” value [1, 7] was 36. The “Vomiting, 0-120 h” value [1, 7] was 66%, the “Vomiting, 0-120 h (number of subjects)” value [1, 7] was 42 and the “Vomiting, 24-120 h” value [1, 7] was 58%. The “Vomiting, 24-120 h (number of subjects)” value [1, 7] was 37, the “CR, 24-120 h” value [1, 8] was 47% and the “CR, 24-120 h (number of subjects)” value [1, 8] was 17. The “Nausea, 24-120 h” value [1, 8] was 61%, the “Nausea, 24-120 h (number of subjects)” value [1, 8] was 22 and the “Rescue medication use, 24-120 h” value [1, 8] was 36%. For the same molecule, the “Rescue medication use, 24-120 h (number of subjects)” value [1, 8] was 13, the “Vomiting, 24-120 h” value [1, 8] was 47% and the “Vomiting, 24-120 h (number of subjects)” value [1, 8] was 17. The “No emesis (vomiting/retching)” value ([2]; 2.5 mg IV amisulpride) was 0/5, the No significant nausea ([2]; 2.5 mg IV amisulpride) was 1/5 and the “No emesis (vomiting/retching)” value ([2]; 7.5 mg IV amisulpride) was 0/5. The No significant nausea ([2]; 7.5 mg IV amisulpride) was 1/5, the “No emesis (vomiting/retching)” value ([2]; 20 mg IV amisulpride) was 3/18 and the No significant nausea ([2]; 20 mg IV amisulpride) was 12/18. The “Protection from nausea, dose-relationship” value ([2]; IV amisulpride from 2.5 mg to 20 mg) was “positive dose-relationship”.
